The values below come from patent US20250154121A1, “CYCLIC(ALKYL)(AMINO)ALKOXY-SUBSTITUTED ARYL-PYRONE COMPOUND AND USE THEREOF” (priority 2022, published 2025).

Assay [1] has as its system Human Coronavirus 229E (HCoV-229E). Put plainly: animal or person. It is filed as in vivo. The note with it: for inhibition in vivo at 7.5 mg/kg/day / inhibition in vivo at 15 mg/kg/day / inhibition in vivo at 30 mg/kg/day / inhibition in vivo at 40 mg/kg/day / inhibition in vivo at 50 mg/kg/day: Human coronavirus 229E, in Mus musculus, po, 96 h, read-out: inhibition rate (%).

In assay [2] the test system is Influenza A (H1N1) virus FM1 strain. The assay is described as follows: Mouse pneumonia model infected with influenza A (H1N1) virus FM1 strain (lung index). It is filed as in vivo, ICR mice. The procedure: ICR mice were taken and randomly divided into: normal control group, model control group, ribavirin control group, compound 4, compound F1, compound F2, and compound F3 according to their weight class, and each drug was given in two dosage groups (10 mice in each group). Except for the normal control group, mice were slightly anesthetized with ether and infected with 15 LD50 H1N1 influenza virus liquid FM1 strain by nasal drops (30 μl per animal). The administration was started on the day of infection at 0.2 ml/10 g by gavage each time once a day for 4 days, and the normal control and model control groups were gavaged with distilled water under the same conditions. The mice were weighed and dissected on Day 5, and the lung was weighed to calculate lung index and lung index inhibition. The results were statistically processed using t-test for comparison between groups.
(§1) ICR mice were taken and randomly divided by weight class: normal control group, model control group, oseltamivir control group, compound 4, compound F4, compound F5, compound 5, and compound 7 according to their weight class, and each drug was given in two dosage groups (10 mice in each group). Except for the normal control group, mice were slightly anesthetized with ether and infected with 15 LD50 H1N1 influenza virus liquid (FM1/PR8 strain) by nasal drops (30 μl per each animal). The administration was started on the day of infection at 0.2 ml/10 g by gavage each time once a day for 4 days, and the normal control and model control groups were gavaged with distilled water under the same conditions. The mice were weighed and dissected on Day 5, and lung was weighed to calculate lung index and lung index inhibition. The results were statistically processed using t-test for comparison between groups.
(§2) ICR mice were taken and randomly divided into 9 groups according to the body weight: a normal control group, model control group, oseltamivir control group, and two dosage groups of Compound 9, Compound 12 and Compound 2, 10 mice in each group. Except the normal control group, mice were slightly anesthetized with ether and infected with 15 LD50 H1N1/PR8 influenza virus liquid by nasal drops at 30 μl per mouse. The administration was started on the day of infection, at 0.2 ml/10 g each time by gavage once a day for 4 days, and the normal control and model control groups were gavaged with distilled water under the same conditions. The mice were weighed and dissected on Day 5, and lungs were weighed to calculate lung index and lung index inhibition. The results were statistically processed using t-test for comparison between groups.

The subject of assay [3] is Sendai strain of parainfluenza virus. It is filed as in vivo. The settings on record: Table 11 (Example 24).
For assay [4], the system named is Influenza A (H1N1) virus PR8 strain. The assay is described as follows: Mouse pneumonia model infected with influenza A (H1N1) virus PR8 strain (lung index). It is filed as in vivo, ICR mice. On the procedure: as §1, §2
Where [5] appears, read: Table 5 (Example 16), 7.5 mg/kg/d gavage for 4 days.
Setting [6] is: Table 5 (Example 16), 15 mg/kg/d gavage for 4 days.
The mark [7] stands for this setting: Table 5 (Example 16), 30 mg/kg/d gavage for 4 days.
Where [8] appears, read: Influenza A virus, H1N1, po, 96 h, Table 2 (Example 14), 20 mg/kg gavage once a day for 4 days, read-out: inhibition rate (%).
[9] abbreviates: Influenza A virus, H1N1, po, 96 h, Table 2 (Example 14), 40 mg/kg gavage once a day for 4 days, read-out: inhibition rate (%).
[10] abbreviates: Table 2 (Example 14), 20 mg/kg gavage once a day for 4 days.
[11] abbreviates: Table 2 (Example 14), 40 mg/kg gavage once a day for 4 days.
Setting [12] is: Table 10 (Example 23), 7.5 mg/kg/d gavage for 4 days.
[13] abbreviates: Table 4 (Example 15), 40 mg/kg/d gavage for 4 days.
Setting [14] is: Table 4 (Example 15), 50 mg/kg/d gavage for 4 days.
Where [15] appears, read: Influenza A virus, H1N1, po, 96 h, Table 1 (Example 13), 25 mg/kg gavage once a day for 4 days, read-out: inhibition rate (%).
[16] abbreviates: Influenza A virus, H1N1, po, 96 h, Table 1 (Example 13), 50 mg/kg gavage once a day for 4 days, read-out: inhibition rate (%).
The mark [17] stands for this setting: Table 1 (Example 13), 25 mg/kg gavage once a day for 4 days.
The mark [18] stands for this setting: Table 1 (Example 13), 50 mg/kg gavage once a day for 4 days.
Where [19] appears, read: Table 12 (Example 25), 27.5 mg/kg/d gavage for 4 days.
Where [20] appears, read: Table 13 (Example 25), 27.5 mg/kg/d gavage for 4 days.

The structures appear in SMILES notation. Read-outs that look alike come from different tables or passages of the source.

Consider `CC1(NCCOc2ccc3c(=O)c(-c4ccccc4)coc3c2)CC1` [Compound 5], for which the inhibition in vivo at 7.5 mg/kg/day in assay [1] (setting [5]) was 22.7%. Also, the inhibition in vivo at 15 mg/kg/day in assay [1] (setting [6]) was -17%. For the same compound, the inhibition in vivo at 30 mg/kg/day in assay [1] (setting [7]) is -7%. The lung index is recorded as 0.76 ± 0.08 g lung weight × 100/g body weight in assay [1] (setting [5]); 0.80 ± 0.10 g lung weight × 100/g body weight in assay [1] (setting [6]); 0.79 ± 0.08 g lung weight × 100/g body weight in assay [1] (setting [7]); 1.20 ± 0.16 in assay [2] (setting [10]); 1.07 ± 0.21 in assay [2] (setting [11]). In addition, the inhibition in vivo at 20 mg/kg in assay [2] (setting [8]) was -25.1%. Besides, the inhibition in vivo at 40 mg/kg in assay [2] (setting [9]) was 8.44%.

On to `O=c1c(-c2ccccc2)coc2cc(OCCNC3CCCCC3)ccc12` [Compound 7], for which, in assay [1] (setting [5]), the inhibition in vivo at 7.5 mg/kg/day is -17%. For the same compound, in assay [1] (setting [6]), the inhibition in vivo at 15 mg/kg/day came to 41.6%. The inhibition in vivo at 30 mg/kg/day in assay [1] (setting [7]) came to 15.8%. The lung index is on record as 0.80 ± 0.09 g lung weight × 100/g body weight in assay [1] (setting [5]); 0.74 ± 0.06 g lung weight × 100/g body weight in assay [1] (setting [6]); 0.76 ± 0.07 g lung weight × 100/g body weight in assay [1] (setting [7]); 1.02 ± 0.12 in assay [2] (setting [10]); 0.98 ± 0.18 in assay [2] (setting [11]). The inhibition in vivo at 20 mg/kg in assay [2] (setting [8]) came to 21%. Moreover, the inhibition in vivo at 40 mg/kg in assay [2] (setting [9]) was found to be 30.2%.

On to `CC(=O)N(CCOc1ccc2c(=O)c(-c3ccccc3)coc2c1)C1CC1` [Compound 10], for which, in assay [1] (setting [12]), the inhibition in vivo at 7.5 mg/kg/day came out at 25.6%. The lung index is given as 0.85 ± 0.06 g lung weight × 100/g body weight in assay [1] (setting [12]), 0.83 ± 0.06 Lung weight * 100/body weight in assay [3] (7.5 mg/kg/d gavage for 4 days) and 0.86 ± 0.05 Lung weight * 100/body weight in assay [3] (15 mg/kg/d gavage for 4 days). For the same compound, the inhibition rate % in assay [3] (7.5 mg/kg/d gavage for 4 days) is reported as 7.43%; in assay [3] (15 mg/kg/d gavage for 4 days), −16.30%.

For `CCC(=O)N(CCOc1ccc2c(=O)c(-c3ccccc3)coc2c1)C1CC1` [Compound 11], in assay [1] (setting [12]), the inhibition in vivo at 7.5 mg/kg/day worked out at 14.1% and the lung index is reported as 0.87 ± 0.08 g lung weight × 100/g body weight. In assay [3] (7.5 mg/kg/d gavage for 4 days), the inhibition rate % was −20.73% and the lung index was 0.87 ± 0.04 Lung weight * 100/body weight. Also, in assay [3] (15 mg/kg/d gavage for 4 days), the inhibition rate % is recorded as 6.19% and the lung index is recorded as 0.83 ± 0.05 Lung weight * 100/body weight.

Take `O=c1c(-c2ccccc2)coc2cc(O)ccc12` [Compound F1, reference compound]: the inhibition in vivo at 40 mg/kg/day in assay [1] (setting [13]) was 15.9%. The inhibition in vivo at 50 mg/kg/day in assay [1] (setting [14]) amounted to 20.4%. In addition, in assay [1] (setting [12]), the inhibition in vivo at 7.5 mg/kg/day stood at 27.2%. The lung index in assay [1] (setting [13]) was 0.81 ± 0.06 g lung weight × 100/g body weight; in assay [1] (setting [14]), 0.80 ± 0.05 g lung weight × 100/g body weight; in assay [1] (setting [12]), 0.85 ± 0.07 g lung weight × 100/g body weight; in assay [2] (setting [17]) it was 1.17 ± 0.09; in assay [2] (setting [18]) it was 1.06 ± 0.13. The inhibition in vivo at 25 mg/kg in assay [2] (setting [15]) was 11.1%. For the same compound, the inhibition in vivo at 50 mg/kg in assay [2] (setting [16]) is 30%.

As for `COc1ccc(-c2coc3cc(O[C@@H]4OC(CO)[C@@H](O)C(O)C4O)ccc3c2=O)cc1O` (stereo partly shown) [Compound F2, reference compound], in assay [1] (setting [13]), the inhibition in vivo at 40 mg/kg/day came to 1.45%. For the same compound, the inhibition in vivo at 50 mg/kg/day in assay [1] (setting [14]) amounted to 10.6%. Moreover, the lung index in assay [1] (setting [13]) was 0.84 ± 0.05 g lung weight × 100/g body weight; in assay [1] (setting [14]) it was 0.82 ± 0.06 g lung weight × 100/g body weight; in assay [2] (setting [17]) it was 1.13 ± 0.18; in assay [2] (setting [18]) it was 1.12 ± 0.17. Further, the inhibition in vivo at 25 mg/kg in assay [2] (setting [15]) turned out to be 17.1%. Besides, the inhibition in vivo at 50 mg/kg in assay [2] (setting [16]) stood at 19.1%.

In the case of `COc1ccc(-c2coc3cc(O)ccc3c2=O)cc1O` [Compound F3, reference compound], the inhibition in vivo at 40 mg/kg/day in assay [1] (setting [13]) came out at 7.71%. Also, in assay [1] (setting [14]), the inhibition in vivo at 50 mg/kg/day turned out to be 1.81%. Besides, the lung index in assay [1] (setting [13]) is recorded as 0.83 ± 0.09 g lung weight × 100/g body weight; in assay [1] (setting [14]), 0.84 ± 0.06 g lung weight × 100/g body weight; in assay [2] (setting [17]) it was 1.19 ± 0.31; in assay [2] (setting [18]), 1.31 ± 0.22. For the same compound, the inhibition in vivo at 25 mg/kg in assay [2] (setting [15]) was 4.07%. For the same compound, the inhibition in vivo at 50 mg/kg in assay [2] (setting [16]) was -18.7%.

`COCCOc1ccc2c(=O)c(-c3ccccc3)coc2c1` [Compound F4, reference compound]: the inhibition in vivo at 7.5 mg/kg/day in assay [1] (setting [5]) was -86%. Besides, in assay [1] (setting [6]), the inhibition in vivo at 15 mg/kg/day was -64%. Besides, the inhibition in vivo at 30 mg/kg/day in assay [1] (setting [7]) is 37.2%. In addition, the lung index is given as 0.86 ± 0.07 g lung weight × 100/g body weight in assay [1] (setting [5]); 0.84 ± 0.07 g lung weight × 100/g body weight in assay [1] (setting [6]); 0.75 ± 0.13 g lung weight × 100/g body weight in assay [1] (setting [7]); 1.14 ± 0.12 in assay [2] (setting [10]); 1.22 ± 0.13 in assay [2] (setting [11]). The inhibition in vivo at 20 mg/kg in assay [2] (setting [8]) was -9.25%. Moreover, the inhibition in vivo at 40 mg/kg in assay [2] (setting [9]) is -29.3%.

`CC(=O)NCCOc1ccc2c(=O)c(-c3ccccc3)coc2c1` [Compound F5, reference compound]: the inhibition in vivo at 7.5 mg/kg/day in assay [1] (setting [5]) is -41%. Besides, the inhibition in vivo at 15 mg/kg/day in assay [1] (setting [6]) is -72%. Also, the inhibition in vivo at 30 mg/kg/day in assay [1] (setting [7]) worked out at 17%. In addition, the lung index is reported as 0.82 ± 0.08 g lung weight × 100/g body weight in assay [1] (setting [5]); 0.85 ± 0.08 g lung weight × 100/g body weight in assay [1] (setting [6]); 0.77 ± 0.11 g lung weight × 100/g body weight in assay [1] (setting [7]); 1.22 ± 0.11 in assay [2] (setting [10]); 1.10 ± 0.24 in assay [2] (setting [11]). Besides, the inhibition in vivo at 20 mg/kg in assay [2] (setting [8]) is -31.3%. For the same compound, the inhibition in vivo at 40 mg/kg in assay [2] (setting [9]) stood at 0.35%.

Take `CCOC(=O)C1=C[C@@H](OC(CC)CC)[C@H](NC(C)=O)[C@@H](N)C1` [Oseltamivir, Oseltamivir phosphate, reference compound]: the “inhibition rate %” value in assay [4] (Table 3 (Example 14), 27.5 mg/kg gavage once a day for 4 days) amounted to 58.89%; in assay [4] (setting [19]), 88.97%; in assay [2] (setting [20]) it was 64.57%. Moreover, the lung index in assay [4] (setting [19]) is 0.71 ± 0.069 Lung weight * 100/body weight; in assay [2] (Table 2 (Example 14), 27.5 mg/kg gavage once a day for 4 days), 0.86 ± 0.21; in assay [2] (setting [20]), 0.74 ± 0.065 Lung weight * 100/body weight. For the same compound, in assay [2] (Influenza A virus, H1N1, po, 96 h, Table 2 (Example 14), 27.5 mg/kg gavage once a day for 4 days, read-out: inhibition rate (%)), the inhibition in vivo at 27.5 mg/kg was found to be 62.1%.
